The record followed here is patent US5726203A, “Qinghaosu derivatives against AIDS” (priority 1993, dated 1998).

Molecules are shown by their SMILES.

For one experiment, the system named is U937 HIV-1. The experiment in a line: Inhibition effect on HIV-1 infected U937 cells (macrophage cell line), HIV antigen test (IE). In kind it is cell-based. The note with it: U937 HIV-1; 50 μg/ml. The method, then: a. Freshly cultured MT4 cells (5×10^5 /ml) were co-cultivated with the virus fluid (10^3 TCID50 /ml) in a CO2 incubator at 37° C. for 1-1.5 hours. RPMI 1640 complete medium (containing 10% Bovine serum and antibiotics, such as penicillin) was used to wash the unbound virus.
Complete medium was added to correct the concentration for use.
The experiment was carried out on the plates with 96 wells. 0.1 ml of the above-mentioned infected MT4 cell suspension was added into each well, and then 0.1 ml of various concentrations of the drugs were added. […] Each concentration of the drugs was added into two wells. Both the experiment group and the control group were incubated in a CO2 incubator at 37° C. The drug solution were changed 3 days later, and the following observations were carried out 6 days afterwards.
c. Determination of the virus antigen expression. The immunoenzymatic method was used to examine the virus antigen expression. Cells from each group were separately smeared in two wells. They were fixed with cold acetone, HIV-positive serum was dropped into the wells. After incubated in a CO2 incubator at 37° C. for 30 minutes, they were washed with PBS for 3 times. Enzyme-labelled SPA was dropped into the wells. They were incubated in the same condition for 30 minutes, washed with PBS for 3 times, and then put in substrate solution to stain for 2-3 minutes, washed with distilled water, and observed under microscope. Normal cells were colorless, whereas virus-carrying cells appeared browrish red.
Furthermore, a part of the compounds according to the present invention were used to test their inhibition effect on U937 cell line (macrophage cell line)according to the methods in Experiment 1.

For another experiment, the system named is Plasmodium Berghei. The experiment is described as follows: Peters' four day inhibition test in mice, erythrocytic stage of Plasmodium Berghei. The note with it: once a day D0-D3, Hybrid Kunming strain mice, read-out: SD50 (the source's name). In kind it is in vivo. The source says:
Effect on Erythrocytic Stage of Plasmodium Berghei 1. "Four day inhibition test" in mice To determinate the SD50 with Peters' "four day inhibition test". Hybrid Kunming strain mice, body weight 18-22 g, were inculated with 1×10^7 parasites infected RBC intraperitoneally on D0. Dihydroqinghaosu-methylcarbamate, dihydroqinghaosu-butylcarbamate, dihydroqinghaosu-benzenecarbamate and dihydroqinghaosu-4-nitrobenzenecarbamate with different concentration were given once a day from D0 -D3. Blood smears from mouse's tail were made on D4, stained with Gimsa reagent and examined under microscope to count the infected and uninfected erthrocyte to get infected rate. Inhibitory rates of different dosages were calculated by following formula. The SD50 was calculated by the simplified probit analysis: [formula]

For the compound `CNC(=O)OC1OC2OC3(C)CCC4C(C)CCC(C1C)C24OO3` (centres unmarked) [Dihydroqinghaosu-methylcarbamate, Dihydroqinghaosu-Methylcarbamate], in the experiment with U937 HIV-1, the “Antigen test (IE)” value is on record as “- (positive cells were not seen in the whole well)”. Also, the ED50 in the experiment with Plasmodium Berghei was found to be 0.24 mg/kg.
